Target: T1, human PF4 (Homo sapiens, UniProt P02776)
T1 construct: PF4 is a 70 amino acid, lysine-rich 7.8 kDa platelet-specific protein; made in house; host or cells: Escherichia coli BL21DE3 pLysS (pT7-7) and/or Drosophila S2 cells
T1 sequence (P02776 32-101): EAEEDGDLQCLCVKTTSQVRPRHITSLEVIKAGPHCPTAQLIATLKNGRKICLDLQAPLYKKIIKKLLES
Test: Inhibition of PF4 tetramer formation (BS3 cross-linking, SDS-PAGE)
Type: biochemical
Settings: for inhibition at 1 µM: 1 μM inhibitor; for inhibition at 1 µM / inhibition at 3 µM / inhibition at 5 µM / inhibition at 10 µM: read-out: % inhibition of PF4 tetramer formation at single concentration of inhibitor; for inhibition at 3 µM: 3 μM inhibitor (column A); for inhibition at 5 µM: 5 μM inhibitor; for inhibition at 10 µM: 10 μM inhibitor (column A); for IC50: read-out: IC50 of PF4 tetramer formation inhibition
Outline: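 Monomer, dimer, trimer and tetramer fractions were quantified by densitometry after reducing 12% SDS-PAGE of BS3-cross-linked (0.2 mM, 30 min, room temperature) PF4. Before cross-linking, 10 μg/ml E. coli-expressed human WT PF4 in PBS was exposed to compound for 15 min at 37° C or 60 min at room temperature; controls lacked compound.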

SMILES | inhibition at 1 µM | inhibition at 3 µM | inhibition at 5 µM | inhibition at 10 µM | IC50
COCCOCCNC(=O)C1C(=O)c2ccc(C#Cc3ccc4c(c3)C(=O)C(C(=O)NCCOCCOC)C4=O)cc2C1=O (stereo not shown) [Example 381, N-[2-(2-methoxyethoxy)ethyl]-5-[2-(2-{[2-(2-methoxyethoxy)ethyl]carbamoyl}-1,3-dioxo-2,3-dihydro-1H-inden-5-yl)ethynyl]-1,3-dioxo-2,3-dihydro-1H-indene-2-carboxamide] | 7% | 19% | – | – | –
O=C(c1ccc2c(c1)C(=O)C(C(=O)C1CCOC1)C2=O)c1ccc2c(c1)C(=O)C(C(=O)C1CCOC1)C2=O (stereo not shown) [Example 146, 5-[1,3-dioxo-2-(oxolane-3-carbonyl)-2,3-dihydro-1H-indene-5-carbonyl]-2-(oxolane-3-carbonyl)-2,3-dihydro-1H-indene-1,3-dione] | – | – | 44% | 40% | –
O=C1c2ccc(Oc3ccc4c(c3)C(=O)C(C(=O)[C@@H]3C[C@H]3C(=O)O)C4=O)cc2C(=O)C1C(=O)[C@@H]1C[C@H]1C(=O)O (stereo partly drawn) [Example 262, (1R,2R)-2-({5-[(2-{[(1R,2R)-2-carboxycyclopropyl](hydroxy)methylidene}-1,3-dioxo-2,3-dihydro-1H-inden-5-yl)oxy]-1,3-dioxo-2,3-dihydro-1H-inden-2-ylidene}(hydroxy)methyl)cyclopropane-1-carboxylic acid] | 49% | 67% | – | – | 1.33 µM
C[C@@H]1CC[C@@H](C(=O)C2C(=O)c3ccc(-c4ccc5c(c4)C(=O)C(C(=O)[C@@H]4CC[C@@H](C)N4C(=O)OC(C)(C)C)C5=O)cc3C2=O)N1C(=O)OC(C)(C)C (stereo partly drawn) [Example 214, tert-butyl (2S,5R)-2-{2′-[(2S,5R)-1-[(tert-butoxy)carbonyl]-5-methylpyrrolidine-2-carbonyl]-1,1′,3,3′-tetraoxo-1H,1′H,2H,2′H,3H,3′H-[5,5′-biindene]-2-carbonyl}-5-methylpyrrolidine-1-carboxylate] | – | – | – | – | 4 µM
COc1cccc(NC(=O)C2C(=O)c3ccc(C(=O)c4ccc5c(c4)C(=O)C(C(=O)Nc4cccc(OC)c4)C5=O)cc3C2=O)c1 (stereo not shown) [Example 23, 5,5′-carbonylbis(1,3-dioxo-indan-2-carboxylic acid (3-methoxyphenyl)-amide)] | – | – | 84% | 92% | 1.75 µM
CC(C)(C)OCC(=O)C1C(=O)c2ccc(C(=O)c3ccc4c(c3)C(=O)C(C(=O)COC(C)(C)C)C4=O)cc2C1=O (stereo not shown) [Example 235, 2-[2-(tert-butoxy)acetyl]-5-{2-[2-(tert-butoxy)acetyl]-1,3-dioxo-2,3-dihydro-1H-indene-5-carbonyl}-2,3-dihydro-1H-indene-1,3-dione] | 11% | 29% | – | – | –
CC[C@H](C)[C@H](NC(=O)OC(C)(C)C)C(=O)C1C(=O)c2ccc(S(=O)(=O)c3ccc4c(c3)C(=O)C(C(=O)[C@@H](NC(=O)OC(C)(C)C)[C@@H](C)CC)C4=O)cc2C1=O (stereo partly drawn) [Example 279, tert-butyl N-[(2S,3S)-1-[5-({2-[(2S,3S)-2-{[(tert-butoxy)carbonyl]amino}-3-methylpentanoyl]-1,3-dioxo-2,3-dihydro-1H-inden-5-yl}sulfonyl)-1,3-dioxo-2,3-dihydro-1H-inden-2-yl]-3-methyl-1-oxopentan-2-yl]carbamate] | 33% | 15% | – | – | 3 µM
CCCC(=O)C1C(=O)c2ccc(C(=O)c3ccc4c(c3)C(=O)C(C(=O)CCC)C4=O)cc2C1=O (stereo not shown) [Example 150, 2-butanoyl-5-(2-butanoyl-1,3-dioxo-2,3-dihydro-1H-indene-5-carbonyl)-2,3-dihydro-1H-indene-1,3-dione] | – | – | 50% | 75% | ~22 µM
O=C(c1ccc2c(c1)C(=O)C(C(=O)CC1CCCC1)C2=O)c1ccc2c(c1)C(=O)C(C(=O)CC1CCCC1)C2=O (stereo not shown) [Example 141, 2-(2-cyclopentylacetyl)-5-[2-(2-cyclopentylacetyl)-1,3-dioxo-2,3-dihydro-1H-indene-5-carbonyl]-2,3-dihydro-1H-indene-1,3-dione] | – | – | 38% | 68% | –
COCCOCCN(CC(=O)C1C(=O)c2ccc(Oc3ccc4c(c3)C(=O)C(C(=O)CN(CCOCCOC)C(=O)OC(C)(C)C)C4=O)cc2C1=O)C(=O)OC(C)(C)C (stereo not shown) [Example 390, tert-butyl N-{2-[5-({2-[2-(11,11-dimethyl-9-oxo-2,5,10-trioxa-8-azadodecan-8-yl)acetyl]-1,3-dioxo-2,3-dihydro-1H-inden-5-yl}oxy)-1,3-dioxo-2,3-dihydro-1H-inden-2-yl]-2-oxoethyl}-N-[2-(2-methoxyethoxy)ethyl]carbamate] | 27% | 31% | – | – | –

Other lines, results leading:

inhibition at 1 µM | inhibition at 3 µM | inhibition at 5 µM | inhibition at 10 µM | IC50 | SMILES
– | – | 66% | 77% | 0.5 µM | CC(=O)c1cccc(NC(=O)C2C(=O)c3ccc(C(=O)c4ccc5c(c4)C(=O)C(C(=O)Nc4cccc(C(C)=O)c4)C5=O)cc3C2=O)c1 (stereo not shown) [Example 103, N-(3-acetylphenyl)-5-{2-[(3-acetylphenyl)carbamoyl]-1,3-dioxo-2,3-dihydro-1H-indene-5-carbonyl}-1,3-dioxo-2,3-dihydro-1H-indene-2-carboxamide]
9% | 28% | – | – | – | CC(=O)C1C(=O)c2ccc(N(C)S(=O)(=O)c3ccc4c(c3)C(=O)C(C(C)=O)C4=O)cc2C1=O (stereo not shown) [Example 314, -acetyl-N-(2-acetyl-1,3-dioxo-2,3-dihydro-1H-inden-5-yl)-N-methyl-1,3-dioxo-2,3-dihydro-1H-indene-5-sulfonamide]
– | – | 68% | 89% | 4.3 µM | O=C(c1ccc2c(c1)C(=O)C(C(=O)Cn1cnnn1)C2=O)c1ccc2c(c1)C(=O)C(C(=O)Cn1cnnn1)C2=O (stereo not shown) [Example 168, 5-{1,3-dioxo-2-[2-(1H-1,2,3,4-tetrazol-1-yl)acetyl]-2,3-dihydro-1H-indene-5-carbonyl}-2-[2-(1H-1,2,3,4-tetrazol-1-yl)acetyl]-2,3-dihydro-1H-indene-1,3-dione]
– | – | – | – | 3 µM | O=C(NCCc1cccc(Cl)c1)C1C(=O)c2ccc(S(=O)(=O)c3ccc4c(c3)C(=O)C(C(=O)NCCc3cccc(Cl)c3)C4=O)cc2C1=O (stereo not shown) [Example 84, N-[2-(3-chlorophenyl)ethyl]-5-[(2-{[2-(3-chlorophenyl)ethyl]carbamoyl}-1,3-dioxo-2,3-dihydro-1H-inden-5-yl)sulfonyl]-1,3-dioxo-2,3-dihydro-1H-indene-2-carboxamide]
41% | 60% | – | – | 0.55 µM | O=C(NC1CCS(=O)(=O)C1)C1C(=O)c2ccc(Oc3ccc4c(c3)C(=O)C(C(=O)NC3CCS(=O)(=O)C3)C4=O)cc2C1=O (stereo not shown) [Example 366, N-(1,1-dioxo-1λ^6-thiolan-3-yl)-5-({2-[(1,1-dioxo-1λ^6-thiolan-3-yl)carbamoyl]-1,3-dioxo-2,3-dihydro-1H-inden-5-yl}oxy)-1,3-dioxo-2,3-dihydro-1H-indene-2-carboxamide]
24% | 46% | – | – | – | O=C(NCC1CCS(=O)(=O)C1)C1C(=O)c2ccc(S(=O)(=O)c3ccc4c(c3)C(=O)C(C(=O)NCC3CCS(=O)(=O)C3)C4=O)cc2C1=O (stereo not shown) [Example 358, N-[(1,1-dioxo-1λ^6-thiolan-3-yl)methyl]-5-[(2-{[(1,1-dioxo-1λ^6-thiolan-3-yl)methyl]carbamoyl}-1,3-dioxo-2,3-dihydro-1H-inden-5-yl)sulfonyl]-1,3-dioxo-2,3-dihydro-1H-indene-2-carboxamide]
27% | 52% | – | – | – | O=C(c1ccc2c(c1)C(=O)C(C(=O)CSc1ccncc1)C2=O)c1ccc2c(c1)C(=O)C(C(=O)CSc1ccncc1)C2=O (stereo not shown) [Example 289, 5-{1,3-dioxo-2-[2-(pyridin-4-ylsulfanyl)acetyl]-2,3-dihydro-1H-indene-5-carbonyl}-2-[2-(pyridin-4-ylsulfanyl)acetyl]-2,3-dihydro-1H-indene-1,3-dione]
38% | 41% | – | – | 3 µM | CSCCC(=O)C1C(=O)c2ccc(C(=O)c3ccc4c(c3)C(=O)C(C(=O)CCSC)C4=O)cc2C1=O (stereo not shown) [Example 277, 2-[3-(methylsulfanyl)propanoyl]-5-{2-[3-(methylsulfanyl)propanoyl]-1,3-dioxo-2,3-dihydro-1H-indene-5-carbonyl}-2,3-dihydro-1H-indene-1,3-dione]
7% | 37% | – | – | – | COC(=O)[C@H]1CCCC[C@H]1C(=O)C1C(=O)c2ccc(S(=O)(=O)c3ccc4c(c3)C(=O)C(C(=O)[C@@H]3CCCC[C@@H]3C(=O)OC)C4=O)cc2C1=O (stereo partly drawn) [Example 257, methyl (1S,2R)-2-[5-({2-[(1R,2S)-2-(methoxycarbonyl)cyclohexanecarbonyl]-1,3-dioxo-2,3-dihydro-1H-inden-5-yl}sulfonyl)-1,3-dioxo-2,3-dihydro-1H-indene-2-carbonyl]cyclohexane-1-carboxylate]
43% | 68% | – | – | 0.66 µM | CC(C)OCC(=O)C1C(=O)c2ccc(S(=O)(=O)c3ccc4c(c3)C(=O)C(C(=O)COC(C)C)C4=O)cc2C1=O (stereo not shown) [Example 379, 5-({1,3-dioxo-2-[2-(propan-2-yloxy)acetyl]-2,3-dihydro-1H-inden-5-yl}sulfonyl)-2-[2-(propan-2-yloxy)acetyl]-2,3-dihydro-1H-indene-1,3-dione]
– | – | 48% | 86% | – | COCCOCCNC(=O)C1C(=O)c2ccc(C(=O)c3ccc4c(c3)C(=O)C(C(=O)NCCOCCOC)C4=O)cc2C1=O (stereo not shown) [Example 66, 5,5′-carbonylbis(n-(2-(2-methoxyethoxy)ethyl)-1,3-dioxo-2,3-dihydro-1h-indene-2-carboxamide)]
